Source: PubChem BioAssay AID1259407 (Chemical Carcinogenesis Research Information System (CCRIS), 2018)
Calls of active or inactive are those of the source. No rule for the calls is given here.

Test system: CCRIS mutagenicity, Ames/micronucleus/aberration tests
Assay: CCRIS mutagenicity studies
[1] = Test System: AMES SALMONELLA TYPHIMURIUM, Strain/Indicator: TA98, Metabolic Activation: NONE, Method: PREINCUBATION
[2] = Test System: AMES SALMONELLA TYPHIMURIUM, Strain/Indicator: TA100, Metabolic Activation: NONE, Method: PREINCUBATION
[3] = Test System: AMES SALMONELLA TYPHIMURIUM, Strain/Indicator: TA100, Metabolic Activation: RAT, LIVER, S-9, AROCLOR 1254, Method: PREINCUBATION
[4] = Test System: AMES SALMONELLA TYPHIMURIUM, Strain/Indicator: TA1535, Metabolic Activation: NONE, Method: PREINCUBATION
[5] = Test System: AMES SALMONELLA TYPHIMURIUM, Strain/Indicator: TA1537, Metabolic Activation: NONE, Method: PREINCUBATION

Compound: Cc1ccccn1
- mutagenic call (Test System: AMES SALMONELLA TYPHIMURIUM, Strain/Indicator: TA97, Metabolic Activation: NONE, Method: STANDARD PLATE): inactive; negative
- mutagenic call (Test System: AMES SALMONELLA TYPHIMURIUM, Strain/Indicator: TA97, Metabolic Activation: RAT, LIVER, S-9, AROCLOR 1254, Method: STANDARD PLATE): inactive; negative
- mutagenic call [1]: inactive; negative
- mutagenic call (Test System: AMES SALMONELLA TYPHIMURIUM, Strain/Indicator: TA98, Metabolic Activation: NONE, Method: STANDARD PLATE): inactive; negative
- mutagenic call (Test System: AMES SALMONELLA TYPHIMURIUM, Strain/Indicator: TA98, Metabolic Activation: RAT LIVER S-9, PHENOBARBITAL AND BETA-NAPHTHOFLAVONE, Method: PREINCUBATION): inactive; negative
- mutagenic call (Test System: AMES SALMONELLA TYPHIMURIUM, Strain/Indicator: TA98, Metabolic Activation: RAT, LIVER, S-9, AROCLOR 1254, Method: PREINCUBATION): inactive; negative
- mutagenic call (Test System: AMES SALMONELLA TYPHIMURIUM, Strain/Indicator: TA98, Metabolic Activation: RAT, LIVER, S-9, AROCLOR 1254, Method: STANDARD PLATE): inactive; negative
- mutagenic call [2]: inactive; negative
- mutagenic call (Test System: AMES SALMONELLA TYPHIMURIUM, Strain/Indicator: TA100, Metabolic Activation: NONE, Method: STANDARD PLATE): inactive; negative
- mutagenic call (Test System: AMES SALMONELLA TYPHIMURIUM, Strain/Indicator: TA100, Metabolic Activation: RAT LIVER S-9, PHENOBARBITAL AND BETA-NAPHTHOFLAVONE, Method: PREINCUBATION): inactive; negative
- mutagenic call [3]: inactive; negative
- mutagenic call (Test System: AMES SALMONELLA TYPHIMURIUM, Strain/Indicator: TA100, Metabolic Activation: RAT, LIVER, S-9, AROCLOR 1254, Method: STANDARD PLATE): inactive; negative
- mutagenic call (Test System: AMES SALMONELLA TYPHIMURIUM, Strain/Indicator: TA102, Metabolic Activation: NONE, Method: PREINCUBATION): inactive; negative
- mutagenic call (Test System: AMES SALMONELLA TYPHIMURIUM, Strain/Indicator: TA102, Metabolic Activation: NONE, Method: STANDARD PLATE): inactive; negative
- mutagenic call (Test System: AMES SALMONELLA TYPHIMURIUM, Strain/Indicator: TA102, Metabolic Activation: RAT LIVER S-9, PHENOBARBITAL AND BETA-NAPHTHOFLAVONE, Method: PREINCUBATION): inactive; negative
- mutagenic call (Test System: AMES SALMONELLA TYPHIMURIUM, Strain/Indicator: TA102, Metabolic Activation: RAT, LIVER, S-9, AROCLOR 1254, Method: PREINCUBATION): inactive; negative
- mutagenic call (Test System: AMES SALMONELLA TYPHIMURIUM, Strain/Indicator: TA102, Metabolic Activation: RAT, LIVER, S-9, AROCLOR 1254, Method: STANDARD PLATE): inactive; negative
- mutagenic call (Test System: AMES SALMONELLA TYPHIMURIUM, Strain/Indicator: TA104, Metabolic Activation: NONE, Method: PREINCUBATION): inactive; negative
- mutagenic call (Test System: AMES SALMONELLA TYPHIMURIUM, Strain/Indicator: TA104, Metabolic Activation: RAT LIVER S-9, PHENOBARBITAL AND BETA-NAPHTHOFLAVONE, Method: PREINCUBATION): inactive; negative
- mutagenic call [4]: inactive; negative
- mutagenic call (Test System: AMES SALMONELLA TYPHIMURIUM, Strain/Indicator: TA1535, Metabolic Activation: RAT LIVER S-9, PHENOBARBITAL AND BETA-NAPHTHOFLAVONE, Method: PREINCUBATION): inactive; negative
- mutagenic call [5]: inactive; negative
- mutagenic call (Test System: AMES SALMONELLA TYPHIMURIUM, Strain/Indicator: TA1537, Metabolic Activation: RAT LIVER S-9, PHENOBARBITAL AND BETA-NAPHTHOFLAVONE, Method: PREINCUBATION): inactive; negative
- mutagenic call (Test System: E.COLI, Strain/Indicator: WP2UVRA/PKM101, Metabolic Activation: NONE, Method: PREINCUBATION): inactive; negative
- mutagenic call (Test System: E.COLI, Strain/Indicator: WP2UVRA/PKM101, Metabolic Activation: RAT LIVER S-9, PHENOBARBITAL AND BETA-NAPHTHOFLAVONE, Method: PREINCUBATION): inactive; negative
- mutagenic call (Test System: E.COLI, Strain/Indicator: WP2UVRA, Metabolic Activation: NONE, Method: PREINCUBATION): inactive; negative
- mutagenic call (Test System: E.COLI, Strain/Indicator: WP2UVRA, Metabolic Activation: RAT LIVER S-9, PHENOBARBITAL AND BETA-NAPHTHOFLAVONE, Method: PREINCUBATION): inactive; negative

Compound: [CH3][Sn]([CH3])([Cl])[Cl]
- mutagenic call (Test System: AMES SALMONELLA TYPHIMURIUM, Strain/Indicator: TA98, Metabolic Activation: NONE, Method: SUSPENSION/PLATE): inactive; negative
- mutagenic call (Test System: AMES SALMONELLA TYPHIMURIUM, Strain/Indicator: TA100, Metabolic Activation: NONE, Method: SUSPENSION/PLATE): inactive; negative

Compound: CCCC(=O)OCc1cccc([N+](=O)[O-])c1
- mutagenic call [1]: inactive; negative
- mutagenic call [2]: inactive; negative
- mutagenic call [3]: inactive; negative

Compound: O=[N+]([O-])c1ccc(NCCO)c(OCCO)c1
- mutagenic call (Test System: AMES SALMONELLA TYPHIMURIUM, Strain/Indicator: TA98, Metabolic Activation: HAMSTER, LIVER, S-9, AROCLOR 1254 (10%), Method: PREINCUBATION): active; positive
- mutagenic call [1]: active; positive
- mutagenic call (Test System: AMES SALMONELLA TYPHIMURIUM, Strain/Indicator: TA98, Metabolic Activation: RAT, LIVER, S-9, AROCLOR 1254 (10%), Method: PREINCUBATION): active; positive
- mutagenic call (Test System: AMES SALMONELLA TYPHIMURIUM, Strain/Indicator: TA100, Metabolic Activation: HAMSTER, LIVER, S-9, AROCLOR 1254 (10%), Method: PREINCUBATION): active; positive
- mutagenic call [2]: active; positive
- mutagenic call (Test System: AMES SALMONELLA TYPHIMURIUM, Strain/Indicator: TA100, Metabolic Activation: RAT, LIVER, S-9, AROCLOR 1254 (10%), Method: PREINCUBATION): active; positive
- mutagenic call (Test System: AMES SALMONELLA TYPHIMURIUM, Strain/Indicator: TA1535, Metabolic Activation: HAMSTER, LIVER, S-9, AROCLOR 1254 (10%), Method: PREINCUBATION): inactive; negative
- mutagenic call [4]: active; positive
- mutagenic call (Test System: AMES SALMONELLA TYPHIMURIUM, Strain/Indicator: TA1535, Metabolic Activation: RAT, LIVER, S-9, AROCLOR 1254 (10%), Method: PREINCUBATION): inactive; negative
- mutagenic call (Test System: AMES SALMONELLA TYPHIMURIUM, Strain/Indicator: TA1537, Metabolic Activation: HAMSTER, LIVER, S-9, AROCLOR 1254 (10%), Method: PREINCUBATION): active; positive
- mutagenic call [5]: active; positive
- mutagenic call (Test System: AMES SALMONELLA TYPHIMURIUM, Strain/Indicator: TA1537, Metabolic Activation: RAT, LIVER, S-9, AROCLOR 1254 (10%), Method: PREINCUBATION): active; positive

Compound: C=CCNC(N)=S
- mutagenic call (Test System: AMES SALMONELLA TYPHIMURIUM, Strain/Indicator: TA97, Metabolic Activation: HAMSTER, LIVER, S-9, AROCLOR 1254 (10 OR 30%), Method: PREINCUBATION): inactive; negative
- mutagenic call (Test System: AMES SALMONELLA TYPHIMURIUM, Strain/Indicator: TA97, Metabolic Activation: NONE, Method: PREINCUBATION): inactive; negative
- mutagenic call (Test System: AMES SALMONELLA TYPHIMURIUM, Strain/Indicator: TA97, Metabolic Activation: RAT, LIVER, S-9, AROCLOR 1254 (10 OR 30%), Method: PREINCUBATION): inactive; negative
- mutagenic call (Test System: AMES SALMONELLA TYPHIMURIUM, Strain/Indicator: TA98, Metabolic Activation: HAMSTER, LIVER, S-9, AROCLOR 1254 (10 OR 30%), Method: PREINCUBATION): inactive; negative
- mutagenic call [1]: inactive; negative
- mutagenic call (Test System: AMES SALMONELLA TYPHIMURIUM, Strain/Indicator: TA98, Metabolic Activation: RAT, LIVER, S-9, AROCLOR 1254 (10 OR 30%), Method: PREINCUBATION): inactive; negative
- mutagenic call (Test System: AMES SALMONELLA TYPHIMURIUM, Strain/Indicator: TA100, Metabolic Activation: HAMSTER, LIVER, S-9, AROCLOR 1254 (10 OR 30%), Method: PREINCUBATION): inactive; negative
- mutagenic call [2]: inactive; negative
- mutagenic call (Test System: AMES SALMONELLA TYPHIMURIUM, Strain/Indicator: TA100, Metabolic Activation: RAT, LIVER, S-9, AROCLOR 1254 (10 OR 30%), Method: PREINCUBATION): inactive; negative
- mutagenic call (Test System: AMES SALMONELLA TYPHIMURIUM, Strain/Indicator: TA1535, Metabolic Activation: HAMSTER, LIVER, S-9, AROCLOR 1254 (10 OR 30%), Method: PREINCUBATION): inactive; negative
- mutagenic call [4]: inactive; negative
- mutagenic call (Test System: AMES SALMONELLA TYPHIMURIUM, Strain/Indicator: TA1535, Metabolic Activation: RAT, LIVER, S-9, AROCLOR 1254 (10 OR 30%), Method: PREINCUBATION): inactive; negative
